Experimental findings from patent publication US8173635B2, “Kinase inhibitors” (Vertex Pharmaceuticals Incorporated, priority 2007, dated 2012) are described below.

Common to all, as to assay type: biochemical
In one test the target is PKC theta kinase (Homo sapiens, UniProt Q04759). Description: PKC theta kinase inhibition, coupled-enzyme NADH absorbance assay (Ki). Conditions: 240 μM ATP, 18 nM PKC theta, 30° C.; read-out: Ki PKC theta. The procedure:
An assay buffer solution was prepared which consisted of 100 mM HEPES (pH 7.5), 10 mM MgCl2, 25 mM NaCl, 0.1 mM EDTA and 0.01% Brij. […] To 60 μL of this enzyme buffer, in a 384 well plate, was added 2 μL of VRT stock solution in DMSO. The mixture was allowed to equilibrate for 10 mins at 30° C. […] Ki values were calculated from initial rate data by non-linear regression using the Prism software package (Prism 4.0a, Graphpad Software, San Diego, Calif.).

For a further test, the target named is PKC delta kinase (Homo sapiens, UniProt Q05655). As to the kind of experiment: PKC delta kinase inhibition, coupled-enzyme NADH absorbance assay (Ki). Conditions: 150 μM ATP, 46 nM PKC delta, 30° C.; read-out: Ki PKC delta. The procedure:
(§1) An assay buffer solution was prepared which consisted of 100 mM HEPES (pH 7.5), 10 mM MgCl2, 25 mM NaCl, 0.1 mM EDTA and 0.01% Brij. […] To 16 μL of this enzyme buffer, in a 384 well plate, was added 1 μL of VRT stock solution in DMSO. The mixture was allowed to equilibrate for 10 mins at 30° C. […] Ki values were calculated from initial rate data by non-linear regression using the Prism software package (Prism 4.0a, Graphpad Software, San Diego, Calif.).

The target in another test is PKC alpha kinase (Homo sapiens, UniProt P17252). As to the kind of experiment: PKC alpha kinase inhibition, coupled-enzyme NADH absorbance assay (Ki). Conditions: 130 μM ATP, 4.5 nM PKC alpha, 30° C.; read-out: Ki PKC alpha. The procedure:
as §1, with “EDTA, 100 μM CaCl2” for “EDTA”, “C. The enzyme reaction was initiated by the addition of 16 μL stock ATP solution prepared in assay buffer to a final assay concentration of 130 μM. Initial rate data was determined from the rate of change of absorbance at 340 nm (corresponding to stoichiometric consumption of NADH) using a Molecular Devices Spectramax plate reader (Sunnyvale, Calif.) over 15 mins at 30° C.” for “C.”

PKC theta kinase, sequence (Q04759 whole entry): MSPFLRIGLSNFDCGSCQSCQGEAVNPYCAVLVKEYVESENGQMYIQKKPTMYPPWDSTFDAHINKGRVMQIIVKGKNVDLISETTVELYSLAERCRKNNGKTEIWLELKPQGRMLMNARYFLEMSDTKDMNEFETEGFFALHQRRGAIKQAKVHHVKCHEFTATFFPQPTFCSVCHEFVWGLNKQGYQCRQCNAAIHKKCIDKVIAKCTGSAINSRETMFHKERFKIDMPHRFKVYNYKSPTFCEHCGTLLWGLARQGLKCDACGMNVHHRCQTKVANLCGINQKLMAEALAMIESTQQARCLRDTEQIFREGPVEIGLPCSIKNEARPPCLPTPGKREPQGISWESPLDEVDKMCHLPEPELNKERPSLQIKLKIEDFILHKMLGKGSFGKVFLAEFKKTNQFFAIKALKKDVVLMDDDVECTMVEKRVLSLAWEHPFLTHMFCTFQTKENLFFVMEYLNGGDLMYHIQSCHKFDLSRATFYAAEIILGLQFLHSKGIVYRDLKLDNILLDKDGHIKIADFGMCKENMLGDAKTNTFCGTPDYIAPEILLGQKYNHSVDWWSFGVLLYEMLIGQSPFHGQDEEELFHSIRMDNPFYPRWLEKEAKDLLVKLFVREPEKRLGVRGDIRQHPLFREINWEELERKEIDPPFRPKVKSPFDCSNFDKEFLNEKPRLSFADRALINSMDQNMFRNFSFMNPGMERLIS
PKC delta kinase, sequence (Q05655 whole entry): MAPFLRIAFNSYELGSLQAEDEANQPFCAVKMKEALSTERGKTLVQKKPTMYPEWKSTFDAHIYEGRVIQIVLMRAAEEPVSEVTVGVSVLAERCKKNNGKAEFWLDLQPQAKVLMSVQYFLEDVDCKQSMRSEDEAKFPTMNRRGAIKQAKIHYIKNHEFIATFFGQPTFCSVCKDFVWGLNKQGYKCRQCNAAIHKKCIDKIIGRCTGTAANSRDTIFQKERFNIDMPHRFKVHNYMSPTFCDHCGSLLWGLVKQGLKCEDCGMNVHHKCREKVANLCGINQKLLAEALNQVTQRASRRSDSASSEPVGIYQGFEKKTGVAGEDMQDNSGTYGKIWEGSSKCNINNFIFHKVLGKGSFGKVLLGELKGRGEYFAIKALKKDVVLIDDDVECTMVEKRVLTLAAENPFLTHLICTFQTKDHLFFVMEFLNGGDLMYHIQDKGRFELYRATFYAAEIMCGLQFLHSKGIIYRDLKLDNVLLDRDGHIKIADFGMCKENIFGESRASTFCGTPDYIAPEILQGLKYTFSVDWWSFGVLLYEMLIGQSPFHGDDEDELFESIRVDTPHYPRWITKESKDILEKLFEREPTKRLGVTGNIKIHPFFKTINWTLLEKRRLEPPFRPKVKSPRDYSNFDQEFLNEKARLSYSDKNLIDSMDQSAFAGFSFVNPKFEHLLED

`COCC(C)(C#N)c1cccc(-c2ccnc3[nH]ncc23)c1` (stereo not drawn) [Compound 95]: the Ki on PKC theta kinase is below 0.5 µM; at PKC delta kinase, above 2.8 µM; on PKC alpha kinase, below 2.8 µM.

In the case of `COCCC(C)(C#N)c1cccc(-c2ccnc3[nH]ncc23)c1` (stereo not drawn) [Compound 96], the figures for the Ki at PKC theta kinase, at PKC delta kinase and on PKC alpha kinase were below 2.8 µM, above 2.8 µM and above 2.8 µM, respectively.

With `CCCc1cc(-c2ccnc3[nH]ncc23)cc(C2(C#N)CCCC2)c1` [Compound 97], the Ki on PKC theta kinase is below 0.5 µM; on PKC delta kinase, above 2.8 µM; on PKC alpha kinase it was above 2.8 µM.

As to `N#CC1(c2cccc(-c3ccnc4[nH]ncc34)c2)CC1` [Compound 98], the Ki is below 0.05 µM on PKC theta kinase, below 0.5 µM on PKC delta kinase and below 2.8 µM on PKC alpha kinase.

`CC(C#N)(CC(F)F)c1cccc(-c2ccnc3[nH]ncc23)c1` (stereo not drawn) [Compound 99]: the Ki at PKC theta kinase is below 0.5 µM; at PKC delta kinase, below 2.8 µM; at PKC alpha kinase it was below 2.8 µM.

For the molecule `CC(C#N)(Cc1ccccc1)c1cccc(-c2ccnc3[nH]ncc23)c1` (stereo not drawn) [Compound 100], the Ki is above 0.21 µM on PKC theta kinase, above 2.8 µM on PKC delta kinase and above 0.39 µM on PKC alpha kinase.

Take `CCC(C)(C#N)c1cc(CCO)cc(-c2ccnc3[nH]ncc23)c1` (stereo not drawn) [Compound 101]: the Ki on PKC theta kinase was below 0.05 µM; at PKC delta kinase it was above 2.8 µM; on PKC alpha kinase it was below 2.8 µM.

Consider `CCSc1cc(-c2ccnc3[nH]ncc23)cc(C(C)(C#N)CC)c1` (stereo not drawn) [Compound 102], for which the results for the Ki at PKC theta kinase, on PKC delta kinase and at PKC alpha kinase were below 0.5 µM, above 2 µM and below 2.8 µM, respectively.

As to `CCC(C)(C#N)c1cc(CCCO)cc(-c2ccnc3[nH]ncc23)c1` (stereo not drawn) [Compound 103], the Ki at PKC theta kinase was below 0.05 µM; on PKC delta kinase, above 2 µM; at PKC alpha kinase, below 2.8 µM.

As for `CC#CCC(C)(C#N)c1cccc(-c2ccnc3[nH]ncc23)c1` (stereo not drawn) [Compound 104], the Ki on PKC theta kinase is below 0.5 µM; at PKC delta kinase it was below 2.8 µM; on PKC alpha kinase it was below 2.8 µM.

In the case of `CCC(C)(C#N)c1cc(-c2ccnc3[nH]ncc23)cc(C(C)F)c1` (stereo not drawn) [Compound 105], the Ki on PKC theta kinase is below 0.5 µM; at PKC delta kinase it was above 2 µM; at PKC alpha kinase it was below 2.8 µM.

On to `CCC(F)c1cc(-c2ccnc3[nH]ncc23)cc(C(C)(C#N)CC)c1` (stereo not drawn) [Compound 106], for which the values for the Ki at PKC theta kinase, on PKC delta kinase and at PKC alpha kinase were below 0.5 µM, above 2 µM and below 2.8 µM, respectively.

Consider `CCC(C)(C#N)c1cc(CCCF)cc(-c2ccnc3[nH]ncc23)c1` (stereo not drawn) [Compound 107], for which the Ki is below 0.5 µM on PKC theta kinase, above 2 µM on PKC delta kinase and below 2.8 µM on PKC alpha kinase.

Consider `CCC(C)(C#N)c1cc(CCC(F)F)cc(-c2ccnc3[nH]ncc23)c1` (stereo not drawn) [Compound 108], for which the Ki at PKC theta kinase was below 0.5 µM; on PKC delta kinase it was above 2 µM; on PKC alpha kinase it was above 1.2 µM.

With `CCC(C)(C#N)c1cc(CCCOC)cc(-c2ccnc3[nH]ncc23)c1` (stereo not drawn) [Compound 109], the Ki at PKC theta kinase was below 0.5 µM; at PKC delta kinase, above 2 µM; on PKC alpha kinase it was below 2.8 µM.

For `CCC(C)(C#N)c1cc(-c2ccnc3[nH]ncc23)cc(C(F)F)c1` (stereo not drawn) [Compound 110], the values for the Ki on PKC theta kinase, at PKC delta kinase and at PKC alpha kinase were below 0.05 µM, above 2 µM and below 0.5 µM, respectively.

For the molecule `CCC(C)(C#N)c1cc(-c2ccnc3[nH]ncc23)cc(C(C)(F)F)c1` (stereo not drawn) [Compound 111], the Ki on PKC theta kinase was below 0.05 µM; on PKC delta kinase, below 2.8 µM; at PKC alpha kinase it was below 0.5 µM.

Turning to `CC(C)(C)c1n[nH]c2nccc(-c3cc(Br)cc(C(C)(C)C#N)c3)c12` [Compound 112], the values for the Ki on PKC theta kinase, at PKC delta kinase and at PKC alpha kinase were above 0.7 µM, above 2 µM and above 1.2 µM, respectively.

Turning to `CCC(C)(C#N)c1cc(CC(F)(F)F)cc(-c2ccnc3[nH]ncc23)c1` (stereo not drawn) [Compound 113], the Ki at PKC theta kinase is below 0.5 µM; at PKC delta kinase it was above 2 µM; at PKC alpha kinase it was above 1.2 µM.

Turning to `N#CC1(c2cc(CCO)cc(-c3ccnc4[nH]ncc34)c2)CC1` [Compound 114], the Ki at PKC theta kinase is below 0.05 µM; on PKC delta kinase it was above 2 µM; on PKC alpha kinase, above 1.2 µM.
